From patent publication US20060089329A1, “Ready-to-use gemcitabine solution concentrates” (priority 2004, published 2006)
≈ marks a conversion by molar mass, not a printed value. Counter-ions that a name gives are not always drawn. Like-named read-outs stand apart in the source and are kept apart here.

Legend:
[1] = Saturation concentration of gemcitabine in aqueous ethyl alcohol solutions (Example 3); type: physicochemical; conditions: interpolation (polynomial of the 6th degree), about 66 percent by volume of ethyl alcohol, pH 10±0.5
Experimental: In order to determine the saturation concentration of gemcitabine in aqueous ethyl alcohol solutions, gemcitabine solutions with various volume percentages of ethyl alcohol were prepared and analyzed.
Gemcitabine hydrochloride was placed beforehand in the mixing vessel, reacted with a stoichiometric amount of alkalizer (1N sodium hydroxide) dissolved in water, then treated each time with 80% of the required amounts of water for injection as determined in preliminary tests as well as with the amounts of ethyl alcohol required each time.
The components contained in the batch were subsequently dissolved at room temperature (19-23° C.) while agitating for 6 hours such that an undissolved sediment of gemcitabine hydrochloride remained in the mixing vessel. The pH of the batch was determined potentiometrically and, when required, adjusted to a pH of 10 with 1N sodium hydroxide or 1N hydrochloric acid, so as to achieve at this pH a complete conversion of the gemcitabine hydrochloride to the dissolved gemcitabine base.
The batch was stored for 24 hours at 19-23° C. […] These batches were then filtered until free of particles, and the gemcitabine content was determined by HPLC.

[2] = Maximum solubility of gemcitabine hydrochloride at 66 vol. % ethyl alcohol after dissolving at 35-45° C. (Example 4); type: physicochemical; conditions: dissolved at 35-45° C. for 6 hours, cooled, stored 24 hours at 19-23° C.
Experimental: The maximum solubility of gemcitabine hydrochloride was determined with further use of 1N sodium hydroxide, water for injection and absolute ethyl alcohol in a proportion of 66 percent by volume recognized as optimum for that purpose, at increased solution temperatures (35-45° C. for 6 hours under agitation) and subsequent cooling to room temperature (19-23° C.), and then stored for 24 hours at 19-23° C.

[3] = cited from earlier work

Row | SMILES | maximum gemcitabine solubility ([1]; hydrochloride) | content in particle-free supernatant (maximum solubility) ([2]; hydrochloride) | solubility at 6 h ([1]; aqueous ethyl alcohol solution, 21 °C, pH 10, aqueous with cosolvent or surfactant or cyclodextrin, thermodynamic from solid, read-out: maximum gemcitabine solubility) | solubility at 6 h ([2]; aqueous ethyl alcohol solution, aqueous with cosolvent or surfactant or cyclodextrin, thermodynamic from solid, read-out: content in particle-free supernatant (maximum solubility)) | solubility in water ([3]; pH of 5) | solubility in water ([3]; pH of 7) | solubility in water ([3]; pH of 9) | solubility in water ([3]; pH range of 2.7 to 3.3)
1 | Nc1ccn([C@@H]2O[C@H](CO)[C@@H](O)C2(F)F)c(=O)n1 [gemcitabine hydrochloride] | 55 mg/mL | 108.3 mg/mL |  |  |  |  |  | 
2 | Nc1ccn([C@@H]2O[C@H](CO)[C@@H](O)C2(F)F)c(=O)n1 [gemcitabine, 2′-deoxy-2′,2′-difluorocytidine] |  |  | 50 mg/mL (≈ 190 mM) | 95.1 mg/mL (≈ 361 mM) | 16.0 mg/mL (≈ 60.8 mM) | 15.3 mg/mL (≈ 58.1 mM) | 15.8 mg/mL (≈ 60 mM) | about 38 mg/ml
